44 molecules from the Deep4Chem optical property database can be followed below.

This data set is described as follows: solvent given as SMILES.

`CCCCC1(CCCC)c2cc(-c3ccc(C=C4C(=O)c5ccccc5C4=O)cc3)ccc2-c2ccc(-c3ccc(C=C4C(=O)c5ccccc5C4=O)cc3)cc21` displayed an absorption maximum (in C1CCOC1) of 438 nm; an absorption maximum (in CC(C)=O) of 435 nm; an absorption maximum (in CCCCCC) of 418 nm; an absorption maximum (in CS(C)=O) of 445 nm; an absorption maximum (in Cc1ccccc1) of 437 nm; an absorption maximum (in ClC(Cl)Cl) of 445 nm.
Where the note is “in ClCCl”, `CCOc1cccc(-c2nc3c(c4c2-c2ccccc2CC4)-c2ccccc2CC3)c1O` yielded an absorption maximum of 335 nm.
Molecule `C[Si](C)(C)C#CC#Cc1ccc2c3cccc4cccc(c5cccc1c52)c43` showed an absorption maximum (in C1CCCCC1) of 470 nm.
In turn, `c1ccc(-n2cccc2)cc1` yielded an absorption maximum (in CC#N) of 252 nm and an absorption maximum (in CCCCCC) of 254 nm.
Regarding `O=c1c2cc(I)ccc2nc2n1[B-](F)(F)[n+]1ccccc1-2`, the absorption maximum (in CC#N) was determined as 345 nm and the absorption maximum (in ClCCl) is on record as 362 nm.
On to `CCCCCCCc1cc2c(o1)=CC1=C3c4cc5oc(CCCCCCC)cc5n4[B-](F)(F)[n+]4nnn(c43)[B-](F)(F)[N+]=21`, for which the absorption maximum reads like this: (in C1CCOC1) 676 nm; (in ClCCl) 685 nm.
For the molecule `C=CC1CN2CCC1CC2[C@H](O)c1ccnc2ccc(OC)cc12` (stereo partly specified), for the setting “in O”, the absorption maximum was 347 nm.
`COc1cc(-c2nc(-c3ccccc3)c(-c3ccccc3)[nH]2)c(OC)cc1/C=C/c1ccncc1`: the absorption maximum came to 394 nm (in C1CCOC1), 392 nm (in CC#N), 397 nm (in CN(C)C=O) and 398 nm (in Cc1ccccc1).
Take `Clc1cc(Cl)c([C](c2c(Cl)cc(Cl)cc2Cl)c2c(Cl)cc(-n3c4ccccc4c4ccccc43)cc2Cl)c(Cl)c1`: where the note is “in ClC(Cl)Cl”, the absorption maximum is given as 598 nm.
Take `N#CC(C#N)=Cc1cn(-c2ccccc2)nc1-c1ccccc1`: the absorption maximum is, setting by setting: (in C1CCOC1) 354 nm; (in C1COCCO1) 353 nm; (in CCO) 354 nm; (in CCOC(C)=O) 352 nm; (in CN(C)C=O) 355 nm; (in CO) 351 nm. For the same molecule, the absorption maximum is, setting by setting: (in CS(C)=O) 356 nm; (in Cc1ccccc1) 361 nm; (in ClC(Cl)Cl) 359 nm; (in ClCCl) 357 nm.
In the case of `CCOC(=O)CSc1nc2c(c(C#N)c1C#N)CCCCCC2`, under “in c1ccccc1”, the absorption maximum is recorded as 360 nm.
Where the note is “in CCCCCC”, `CC(C)[Si](C#Cc1c2ccccc2c(C#C[Si](C(C)C)(C(C)C)C(C)C)c2nc3c(nc12)Cc1ccccc1-3)(C(C)C)C(C)C` registered an absorption maximum of 486 nm.
As to `O=C(c1ccncc1)c1ccc(-n2c3ccccc3c3cc(-n4c5ccccc5c5ccccc54)ccc32)cc1`, the absorption maximum runs as follows: (in C1CCOC1) 342.64 nm; (in CCCCCC) 342.64 nm; (in Cc1ccccc1) 362 nm; (in ClCCl) 342.64 nm.
For `Clc1ccc(N2c3sc4ccccc4c3Sc3c2sc2ccccc32)cc1`, the absorption maximum (in ClCCl) was determined as 418 nm.
Molecule `Nc1ccc2c(c1)NC(=O)CC(=O)N2` had an absorption maximum (in CS(C)=O) of 318 nm.
In the case of `CC(C)(C)c1ccc2c(c1)c1cc3c4cc(C(C)(C)C)ccc4c4c5c6ccc(C(C)(C)C)cc6c6cc7c8cc(C(C)(C)C)ccc8c8c2c1c(c34)c(c78)c65`, the absorption maximum worked out at 542.15 nm (in CCCCCC), 541.57 nm (in CCOCC) and 545.85 nm (in Cc1ccccc1).
Regarding `O=S(=O)([O-])CCCCN1C=C/C(=C/C=C/C=C/c2cc[n+](CCCCS(=O)(=O)[O-])c3ccccc23)c2ccccc21`, the absorption maximum (in CO) came out at 815 nm.
`N#Cc1cc2ccc(O)cc2oc1=N` came in with an absorption maximum (in C1CCOC1) of 360 nm; an absorption maximum (in CC#N) of 356 nm; an absorption maximum (in CCOC(C)=O) of 362 nm; an absorption maximum (in CS(C)=O) of 355 nm; an absorption maximum (in ClC(Cl)Cl) of 364 nm.
In the case of `C(/C=C/c1cc2c3c(c1)CCCN3CCC2)=C\c1ccncc1`, the absorption maximum is 413 nm (in C1COCCO1), 413 nm (in CC#N), 403 nm (in CCCCCCC) and 419 nm (in CO).
`CCCCC(CC)CN1C(=O)c2cc(Oc3ccc(C(C)(C)C)cc3)c3c4c(Cl)cc5c6c(cc(Cl)c(c7c(Oc8ccc(C(C)(C)C)cc8)cc(c2c37)C1=O)c64)C(=O)N(c1c(C(C)C)cccc1C(C)C)C5=O` (stereo unspecified) displayed an absorption maximum (in Cc1ccccc1) of 560 nm.
The molecule `Cc1ccc2ccccc2c1` gave an absorption maximum (in C1CCCCC1) of 303.77 nm.
For `O=C1Cc2ccc(cc2)CC(=O)Cc2ccc(c3nsnc23)C1`, the absorption maximum was 384 nm (in C1CCCCC1), 382 nm (in CC#N) and 384 nm (in ClC(Cl)Cl).
Where the note is “in ClC(Cl)Cl”, `COc1ccc(-c2oc3cccc4c5c(-c6ccc(OC)cc6)/c(=N/S(=O)(=O)C(F)(F)F)oc6cccc(c2c34)c65)cc1` returned an absorption maximum of 480 nm.
`N#Cc1c(-n2c3ccc(Br)cc3c3cc(Br)ccc32)c(-n2c3ccc(Br)cc3c3cc(Br)ccc32)c(C#N)c(-n2c3ccc(Br)cc3c3cc(Br)ccc32)c1-n1c2ccc(Br)cc2c2cc(Br)ccc21` came in with an absorption maximum (in Cc1ccccc1) of 339 nm.
Turning to `COc1ccc(/C=C/c2cc(/C=C/c3ccc(N(c4ccccc4)c4ccccc4)cc3)nc(/C=C/c3ccc(N(C)C)cc3)n2)cc1`, the absorption maximum (in ClCCl) is 386 nm.
`CCCCCN(c1ccccc1)c1ccc2c(c1)C(CC)(CC)c1cc(/C=C/c3ccc(/C=C(\C#N)C(=O)O)s3)ccc1-2`: the absorption maximum is, setting by setting: (in C1CCOC1) 456 nm; (in C1COCCO1) 464 nm; (in CC#N) 430 nm; (in CC(C)=O) 464 nm; (in CCOC(C)=O) 460 nm; (in CN(C)C=O) 418 nm. The absorption maximum (in CS(C)=O) was 430 nm and the absorption maximum (in ClCCl) is on record as 470 nm.
Consider `CN(C)c1ccc2c(c1)[Si](C)(C)C1=CC(=[N+](C)C)C=CC1=C2`, for which the absorption maximum came out at 636 nm (in CO) and 634 nm (in O).
Molecule `COc1ccc2c3ccc(OC)cc3n(-c3ccc(-c4nnc(-c5c(C)cc(C)cc5C)o4)cc3C)c2c1` returned an absorption maximum (in Cc1ccccc1) of 319 nm.
For the setting “in C1CCCCC1”, `CC(C)(C)C#Cc1ccc2c3cccc4cccc(c5cccc1c52)c43` had an absorption maximum of 455 nm.
For `CCOc1ccc2c(-c3nc(-c4ccccc4F)no3)cc(=O)oc2c1`, the absorption maximum is, setting by setting: (in CCO) 345 nm; (in ClC(Cl)Cl) 393 nm.
For the molecule `CCOC(=O)c1cc2ccc3ccccc3c2c(C(=O)OCC)c1N`, where the note is “in Cc1ccccc1”, the absorption maximum stood at 427 nm.
`O=C1CC(=O)Nc2cc(C(=O)O)ccc2N1` yielded an absorption maximum (in CS(C)=O) of 304 nm.
For the setting “in C1CCOC1”, `FC(F)(F)C(F)(F)C(F)(F)C1=NC2=C(Oc3ccccc3)C=C3c4cc(Oc5ccccc5)c5nc(C(F)(F)C(F)(F)C(F)(F)F)nc6c(Oc7ccccc7)cc(c4c56)=C4C=C(Oc5ccccc5)C(=N1)C2C34` (stereo unspecified) yielded an absorption maximum of 498 nm.
As to `CC(C)(C)c1ccc(-c2c(-c3ccc(N(c4ccccc4)c4ccccc4)cc3)cc(-c3ccc(N(c4ccccc4)c4ccccc4)cc3)c(-c3ccc(C(C)(C)C)cc3)c2-c2ccc(C(C)(C)C)cc2)cc1`, the absorption maximum (in C1CCOC1) is reported as 316 nm.
`O=C1c2ccccc2C(=O)N1c1ccc(Cn2cncn2)cc1`: the absorption maximum runs as follows: (in C1CCOC1) 293 nm; (in C1COCCO1) 284 nm; (in CC#N) 315 nm; (in CC(C)=O) 304 nm; (in CC(C)O) 306 nm; (in CCCCCC) 278 nm. The molecule also came in with an absorption maximum (in CCCCO) of 302 nm; an absorption maximum (in CCO) of 308 nm; an absorption maximum (in CCOC(C)=O) of 290 nm; an absorption maximum (in CCOCC) of 289 nm; an absorption maximum (in CN(C)C=O) of 314 nm; an absorption maximum (in CO) of 312 nm. Moreover, the absorption maximum is reported as 320 nm (in CS(C)=O), 283 nm (in Cc1ccccc1) and 294 nm (in ClCCl).
Consider `CN1/C(=C/C=C(/C=C/C2=[N+](C)c3ccccc3C2(C)C)c2ccccc2)C(C)(C)c2ccccc21`, for which the absorption maximum worked out at 640 nm (in CCO), 637 nm (in CO), 645 nm (in CS(C)=O) and 634 nm (in O).
`C(=C(c1ccccc1)c1ccccc1)c1ccc(-c2ccc(C=C(c3ccccc3)c3ccccc3)cc2)cc1`: the absorption maximum (in C1CCOC1) was 351 nm.
As for `CC1(C)C(/C=C/C2=C(Oc3ccc(CCN=C=S)cc3Br)C(=C/C=C3/N(CCCS(=O)(=O)[O-])c4ccccc4C3(C)C)/CCC2)=[N+](CCCS(=O)(=O)[O-])c2ccccc21`, the absorption maximum (in CO) is given as 768 nm.
Molecule `CCN(CC)c1ccc(-c2nc(Oc3ccc(-c4nc5ccccc5s4)cc3)nc(Oc3ccc(-c4nc5ccccc5s4)cc3)n2)cc1` yielded an absorption maximum (in CN(C)C=O) of 374 nm.
Under “in ClCCl”, `CC(C)(C)c1ccc2c(c1)c1cc(C(C)(C)C)ccc1n2-c1ccc(N(c2ccc(-c3ccc(N(c4ccc(-n5c6ccc(C(C)(C)C)cc6c6cc(C(C)(C)C)ccc65)cc4)c4ccc(-n5c6ccc(C(C)(C)C)cc6c6cc(C(C)(C)C)ccc65)cc4)cc3)cc2)c2ccc(-n3c4ccc(C(C)(C)C)cc4c4cc(C(C)(C)C)ccc43)cc2)cc1` came in with an absorption maximum of 349 nm.
As for `O=C1c2ccc3c4c(Oc5ccccc5)cc5c6c(ccc(c7c(Oc8ccccc8)cc(c2c37)C(=O)N1c1ccc(O)cc1)c64)C(=O)N(c1ccc(O)cc1)C5=O`, the absorption maximum by setting is: (in C1CCOC1) 513 nm; (in CN1CCCC1=O) 487 nm; (in CN(C)C=O) 495 nm.
Molecule `CC(C)=C(C)C` had an absorption maximum (in CCCCCCC) of 196 nm.
As to `CCOC(=O)C(C(=O)OCC)C1=[N+]2C(=C(c3ccc(C)cc3)c3ccc(C(C(=O)OCC)C(=O)OCC)n3[B-]2(F)F)C=C1`, the absorption maximum by setting is: (in C1CCCCC1) 515 nm; (in C1CCOC1) 512 nm; (in CCOC(C)=O) 510 nm; (in CO) 509 nm; (in Cc1ccccc1) 514 nm; (in ClC(Cl)Cl) 513 nm.
Molecule `C[Si]1(C)c2ccc(C#Cc3ccccc3)cc2C=Cc2cc(C#Cc3ccccc3)ccc21` showed an absorption maximum (in ClCCl) of 346 nm.
